Data on 1 compound can be found in PMC5218480 (PLoS ONE, 2017).

The test system of this experiment is MV-4-11 cells. The experiment in a line: Gene expression microarray analysis (Affymetrix PrimeView) and GSEA. Further details: RFU PODN (11730768_x_at) / Fold change /veh PODN (11730768_x_at) / RFU LINC00158 (11744669_a_at) / Fold change /veh LINC00158 (11744669_a_at) / RFU DUSP10 (11751237_a_at) / Fold change /veh DUSP10 (11751237_a_at) / RFU ID3 (11757404_x_at) / Fold change /veh ID3 (11757404_x_at) / RFU PLEKHG5 (11737974_s_at) / Fold change /veh PLEKHG5 (11737974_s_at) / RFU LRRC4B (11730491_at) / Fold change /veh LRRC4B (11730491_at) / RFU GIMAP4 (11747438_a_at) / Fold change /veh GIMAP4 (11747438_a_at) / RFU KRT8 (11758183_x_at) / Fold change /veh KRT8 (11758183_x_at) / RFU CNN1 (11734310_a_at) / Fold change /veh CNN1 (11734310_a_at) / RFU VPS37D (11726825_at) / Fold change /veh VPS37D (11726825_at) / RFU C10orf10 (11716522_x_at) / Fold change /veh C10orf10 (11716522_x_at) / RFU KIR2DL2 /// KIR2DL4 /// KIR2DL5A /// KIR2DL5B /// KIR2DS1 /// KIR2DS2 /// KIR2DS3 /// KIR2DS4 /// KIR3DL3 /// KIR3DL3 /// KIR3DS1 (11738374_at) / Fold change /veh KIR2DL2 /// KIR2DL4 /// KIR2DL5A /// KIR2DL5B /// KIR2DS1 /// KIR2DS2 /// KIR2DS3 /// KIR2DS4 /// KIR3DL3 /// KIR3DL3 /// KIR3DS1 (11738374_at) / RFU C1QL1 (11718748_at) / Fold change /veh C1QL1 (11718748_at) / RFU TMPRSS4 (11747572_a_at) / Fold change /veh TMPRSS4 (11747572_a_at) / RFU HAMP (11756126_x_at) / Fold change /veh HAMP (11756126_x_at) / RFU RNFT2 (11725882_a_at) / Fold change /veh RNFT2 (11725882_a_at) / RFU NR4A2 (11747474_a_at) / Fold change /veh NR4A2 (11747474_a_at) / RFU ABCC12 (11746883_a_at) / Fold change /veh ABCC12 (11746883_a_at) / RFU TMEM136 (11760407_x_at) / Fold change /veh TMEM136 (11760407_x_at) / RFU CLDN22 /// WWC2 (11732394_at) / Fold change /veh CLDN22 /// WWC2 (11732394_at) / RFU HLA-DPB1 (11760878_x_at) / Fold change /veh HLA-DPB1 (11760878_x_at) / RFU SPINT1 (11716480_a_at) / Fold change /veh SPINT1 (11716480_a_at) / RFU GAP43 (11754022_s_at) / Fold change /veh GAP43 (11754022_s_at) / RFU A4GNT (11735810_at) / Fold change /veh A4GNT (11735810_at) / RFU PRB3 (11715151_x_at) / Fold change /veh PRB3 (11715151_x_at) / RFU TUBB4B (11761932_at) / Fold change /veh TUBB4B (11761932_at) / RFU CAPN14 (11732068_a_at) / Fold change /veh CAPN14 (11732068_a_at) / RFU TMCC2 (11721928_a_at) / Fold change /veh TMCC2 (11721928_a_at) / RFU IRGQ (11745062_a_at) / Fold change /veh IRGQ (11745062_a_at) / RFU FAM174B (11720279_a_at) / Fold change /veh FAM174B (11720279_a_at) / RFU TMPRSS4 (11748680_a_at) / Fold change /veh TMPRSS4 (11748680_a_at) / RFU FAM212B (11763350_a_at) / Fold change /veh FAM212B (11763350_a_at) / RFU PLEKHG5 (11743358_a_at) / Fold change /veh PLEKHG5 (11743358_a_at) / RFU ZSCAN30 (11745921_a_at) / Fold change /veh ZSCAN30 (11745921_a_at) / RFU CMKLR1 (11741424_a_at) / Fold change /veh CMKLR1 (11741424_a_at) / RFU LOC101060620 /// MAPK8IP1 (11723275_at) / Fold change /veh LOC101060620 /// MAPK8IP1 (11723275_at) / RFU SPTSSB (11747773_x_at) / Fold change /veh SPTSSB (11747773_x_at) / RFU PRSS12 (11739890_at) / Fold change /veh PRSS12 (11739890_at) / RFU BIN1 (11741810_x_at) / Fold change /veh BIN1 (11741810_x_at) / RFU WNT11 (11732464_a_at) / Fold change /veh WNT11 (11732464_a_at) / RFU C10orf10 (11716521_a_at) / Fold change /veh C10orf10 (11716521_a_at) / RFU C5orf56 (11738089_at) / Fold change /veh C5orf56 (11738089_at) / RFU CYB561 (11721691_x_at) / Fold change /veh CYB561 (11721691_x_at) / RFU ANKRD19P (11752326_a_at) / Fold change /veh ANKRD19P (11752326_a_at) / RFU OR2T12 /// OR2T33 /// OR2T8 (11738714_s_at) / Fold change /veh OR2T12 /// OR2T33 /// OR2T8 (11738714_s_at) / RFU VCAN (11748164_a_at) / Fold change /veh VCAN (11748164_a_at) / RFU JSRP1 (11732532_at) / Fold change /veh JSRP1 (11732532_at) / RFU KRTAP10-11 (11738290_x_at) / Fold change /veh KRTAP10-11 (11738290_x_at) / RFU MYO3A (11730013_a_at) / Fold change /veh MYO3A (11730013_a_at) / RFU EBF3 (11725865_a_at) / Fold change /veh EBF3 (11725865_a_at) / RFU CAMK2N1 (11719241_x_at) / Fold change /veh CAMK2N1 (11719241_x_at) / RFU C5orf56 (11738088_a_at) / Fold change /veh C5orf56 (11738088_a_at) / RFU OLFML3 (11715873_a_at) / Fold change /veh OLFML3 (11715873_a_at) / RFU LOC100653217 /// NTM (11731650_a_at) / Fold change /veh LOC100653217 /// NTM (11731650_a_at) / RFU MAPK11 (11762145_a_at) / Fold change /veh MAPK11 (11762145_a_at) / RFU FIZ1 (11724087_x_at) / Fold change /veh FIZ1 (11724087_x_at) / RFU OASL (11726364_x_at) / Fold change /veh OASL (11726364_x_at) / RFU SOX15 (11748057_x_at) / Fold change /veh SOX15 (11748057_x_at) / RFU CD79A (11719716_a_at) / Fold change /veh CD79A (11719716_a_at) / RFU HIST1H1D (11736915_at) / Fold change /veh HIST1H1D (11736915_at) / RFU CASKIN2 (11723855_a_at) / Fold change /veh CASKIN2 (11723855_a_at) / RFU LOC730098 (11760151_x_at) / Fold change /veh LOC730098 (11760151_x_at) / RFU OR4N2 (11742367_at) / Fold change /veh OR4N2 (11742367_at) / RFU PRRT2 (11749266_a_at) / Fold change /veh PRRT2 (11749266_a_at) / RFU SNX32 (11753110_a_at) / Fold change /veh SNX32 (11753110_a_at) / RFU CDHR5 (11726645_a_at) / Fold change /veh CDHR5 (11726645_a_at) / RFU RCAN1 (11760418_a_at) / Fold change /veh RCAN1 (11760418_a_at) / RFU FAM167A (11723789_a_at) / Fold change /veh FAM167A (11723789_a_at) / RFU FAM26E (11764081_at) / Fold change /veh FAM26E (11764081_at) / RFU ISYNA1 (11749810_s_at) / Fold change /veh ISYNA1 (11749810_s_at) / RFU ACY1 (11761880_at) / Fold change /veh ACY1 (11761880_at) / RFU 11764098_at / Fold change /veh 11764098_at / RFU SAMD14 (11745864_x_at) / Fold change /veh SAMD14 (11745864_x_at) / RFU NPB (11741838_a_at) / Fold change /veh NPB (11741838_a_at) / RFU TMPRSS6 (11731388_a_at) / Fold change /veh TMPRSS6 (11731388_a_at) / RFU KRTAP10-2 (11738614_at) / Fold change /veh KRTAP10-2 (11738614_at) / RFU ARHGAP8 /// PRR5-ARHGAP8 (11727945_x_at) / Fold change /veh ARHGAP8 /// PRR5-ARHGAP8 (11727945_x_at) / RFU KRTAP5-7 /// NADSYN1 (11734609_at) / Fold change /veh KRTAP5-7 /// NADSYN1 (11734609_at) / RFU RASL12 (11751679_a_at) / Fold change /veh RASL12 (11751679_a_at) / RFU CDKN2B (11736163_a_at) / Fold change /veh CDKN2B (11736163_a_at) / RFU PRF1 (11729649_at) / Fold change /veh PRF1 (11729649_at) / RFU, ZNF638 /// ZNF638-IT1 / Fold change vs veh, ZNF638 /// ZNF638-IT1 / RFU, PANK3 / Fold change vs veh, PANK3 / RFU, SH3YL1 / Fold change vs veh, SH3YL1 / RFU, ZEB2 / Fold change vs veh, ZEB2 / RFU, NRIP1 / Fold change vs veh, NRIP1 / RFU, PTTG1IP / Fold change vs veh, PTTG1IP / RFU, CAPN2 / Fold change vs veh, CAPN2 / RFU, MED14 / Fold change vs veh, MED14 / RFU, SNORA58 / Fold change vs veh, SNORA58 / RFU, C1orf63 / Fold change vs veh, C1orf63 / RFU, LRRFIP1 / Fold change vs veh, LRRFIP1 / RFU, NDUFAF7 / Fold change vs veh, NDUFAF7 / RFU, SLC12A2 / Fold change vs veh, SLC12A2 / RFU, IBTK / Fold change vs veh, IBTK / RFU, ESF1 / Fold change vs veh, ESF1 / Fold change vs veh, TMEM50B / RFU, TAOK1 / Fold change vs veh, TAOK1 / RFU, ACBD3 / Fold change vs veh, ACBD3 / RFU, TMA16 / Fold change vs veh, TMA16 / RFU, RWDD3 / Fold change vs veh, RWDD3 / RFU, BCAT1 / Fold change vs veh, BCAT1 / RFU, EDEM3 / Fold change vs veh, EDEM3 / RFU, TMEM33 / Fold change vs veh, TMEM33 / RFU, WDR75 / Fold change vs veh, WDR75 / RFU, AHCTF1 / Fold change vs veh, AHCTF1 / RFU, TFRC / Fold change vs veh, TFRC / RFU, ZDHHC17 / Fold change vs veh, ZDHHC17 / RFU, NOM1 / Fold change vs veh, NOM1 / RFU, ARL8B / Fold change vs veh, ARL8B / RFU, ZBTB11 / Fold change vs veh, ZBTB11 / RFU, TAMM41 / Fold change vs veh, TAMM41 / RFU, KIAA1704 /// LOC100996395 / Fold change vs veh, KIAA1704 /// LOC100996395 / RFU, ING1 / Fold change vs veh, ING1 / RFU, TRMT61B / Fold change vs veh, TRMT61B / RFU, FUBP3 / Fold change vs veh, FUBP3 / RFU, TP53 / Fold change vs veh, TP53 / RFU, TNKS2 / Fold change vs veh, TNKS2 / RFU, ZFP14 / Fold change vs veh, ZFP14 / RFU, ACTR2 / Fold change vs veh, ACTR2 / RFU, PPP3R1 / Fold change vs veh, PPP3R1 / RFU, PIK3R1 / Fold change vs veh, PIK3R1 / RFU, HNRNPA1 / Fold change vs veh, HNRNPA1 / RFU, RNF170 / Fold change vs veh, RNF170 / RFU, ZNF28 / Fold change vs veh, ZNF28 / RFU, RNGTT / Fold change vs veh, RNGTT / RFU, OGT / Fold change vs veh, OGT / RFU, BRD1 / Fold change vs veh, BRD1 / RFU, MARS / Fold change vs veh, MARS / RFU, ZNF655 / Fold change vs veh, ZNF655 / RFU, FAHD1 / Fold change vs veh, FAHD1 / RFU, BDP1 / Fold change vs veh, BDP1 / RFU, LRRCC1 / Fold change vs veh, LRRCC1 / RFU, ARID1A / Fold change vs veh, ARID1A / RFU, ZNF146 / Fold change vs veh, ZNF146 / RFU, ZNF330 / Fold change vs veh, ZNF330 / RFU, GPN3 / Fold change vs veh, GPN3 / RFU, C9orf123 / Fold change vs veh, C9orf123 / RFU, N4BP2L2 / Fold change vs veh, N4BP2L2 / RFU, ARFIP1 / Fold change vs veh, ARFIP1 / RFU, FAM179B / Fold change vs veh, FAM179B / RFU, BCL10 / Fold change vs veh, BCL10 / RFU, UHRF1BP1L / Fold change vs veh, UHRF1BP1L / RFU, BET1 / Fold change vs veh, BET1 / RFU, CNOT2 / Fold change vs veh, CNOT2 / RFU, ZNF268 / Fold change vs veh, ZNF268 / Fold change vs veh, ZNF507 / RFU, DGCR2 / Fold change vs veh, DGCR2 / RFU, WDSUB1 / Fold change vs veh, WDSUB1 / Fold change vs veh, HSP90B1 /// MIR3652 / RFU, ADSS / Fold change vs veh, ADSS / RFU, GK / Fold change vs veh, GK / RFU, ZNF148 / Fold change vs veh, ZNF148 / RFU, TAF9 / Fold change vs veh, TAF9 / RFU, SLC1A5 / Fold change vs veh, SLC1A5 / RFU, SLMO2 / Fold change vs veh, SLMO2 / RFU, ABCC4 / Fold change vs veh, ABCC4 / RFU, LOC101060439 /// RAP1B / Fold change vs veh, LOC101060439 /// RAP1B / RFU, RFX7 / Fold change vs veh, RFX7 / RFU, GTPBP10 / Fold change vs veh, GTPBP10 / RFU, CNEP1R1 / Fold change vs veh, CNEP1R1 / RFU, BIVM-ERCC5 /// ERCC5 / Fold change vs veh, BIVM-ERCC5 /// ERCC5 / RFU, ILF3 / Fold change vs veh, ILF3 / RFU 11762660_at / Fold change /veh 11762660_at / RFU VCAN (11757783_s_at) / Fold change /veh VCAN (11757783_s_at) / RFU DDX43 (11728927_at) / Fold change /veh DDX43 (11728927_at) / RFU KRT8 (11758188_x_at) / Fold change /veh KRT8 (11758188_x_at) / RFU NKD1 (11759106_at) / Fold change /veh NKD1 (11759106_at) / RFU SRD5A1 (11742802_a_at) / Fold change /veh SRD5A1 (11742802_a_at) / RFU TPSAB1 /// TPSB2 (11721975_s_at) / Fold change /veh TPSAB1 /// TPSB2 (11721975_s_at) / RFU GSTM3 (11746129_a_at) / Fold change /veh GSTM3 (11746129_a_at) / RFU IL23R (11737362_x_at) / Fold change /veh IL23R (11737362_x_at) / RFU TMEM51 (11727254_a_at) / Fold change /veh TMEM51 (11727254_a_at) / RFU PIWIL2 (11732686_x_at) / Fold change /veh PIWIL2 (11732686_x_at) / RFU ORM1 (11744905_x_at) / Fold change /veh ORM1 (11744905_x_at) / RFU CCDC152 (11743942_at) / Fold change /veh CCDC152 (11743942_at) / RFU ECM1 (11717891_a_at) / Fold change /veh ECM1 (11717891_a_at) / RFU IL23R (11748794_a_at) / Fold change /veh IL23R (11748794_a_at) / RFU TNFAIP8L3 (11732012_x_at) / Fold change /veh TNFAIP8L3 (11732012_x_at) / RFU MBOAT4 (11741988_at) / Fold change /veh MBOAT4 (11741988_at) / RFU 11764193_at / Fold change /veh 11764193_at / RFU TMEM53 (11763286_at) / Fold change /veh TMEM53 (11763286_at) / RFU MAGEB2 (11727129_at) / Fold change /veh MAGEB2 (11727129_at) / RFU TMEM200A (11744735_a_at) / Fold change /veh TMEM200A (11744735_a_at) / RFU CCDC152 (11751479_a_at) / Fold change /veh CCDC152 (11751479_a_at) / RFU FAM211A (11726209_a_at) / Fold change /veh FAM211A (11726209_a_at) / RFU RGS16 (11746705_a_at) / Fold change /veh RGS16 (11746705_a_at) / RFU VCAN (11755009_s_at) / Fold change /veh VCAN (11755009_s_at) / RFU RHOB (11743442_s_at) / Fold change /veh RHOB (11743442_s_at) / RFU RGS16 (11720943_a_at) / Fold change /veh RGS16 (11720943_a_at) / RFU RGS16 (11720944_at) / Fold change /veh RGS16 (11720944_at) / RFU, VPS4B / Fold change vs veh, VPS4B / RFU, CREB1 / Fold change vs veh, CREB1 / RFU, DNAJC13 / Fold change vs veh, DNAJC13 / RFU, GNAQ / Fold change vs veh, GNAQ / RFU, CDK5R1 / Fold change vs veh, CDK5R1 / RFU, ZRANB3 / Fold change vs veh, ZRANB3 / RFU, CUL4A / Fold change vs veh, CUL4A / RFU, CCNY / Fold change vs veh, CCNY / RFU, UFL1 / Fold change vs veh, UFL1 / RFU, COG3 / Fold change vs veh, COG3 / RFU, DIAPH2 / Fold change vs veh, DIAPH2 / RFU, SKA2 / Fold change vs veh, SKA2 / RFU, AFF3 / Fold change vs veh, AFF3 / RFU, LMF1 / Fold change vs veh, LMF1 / RFU, IPO11 / Fold change vs veh, IPO11 / RFU, DFFB / Fold change vs veh, DFFB / RFU, FOXP1 / Fold change vs veh, FOXP1 / RFU, CARD8 / Fold change vs veh, CARD8 / RFU, STRN3 / Fold change vs veh, STRN3 / RFU, ADK / Fold change vs veh, ADK / RFU, RASSF2 / Fold change vs veh, RASSF2 / RFU, WIPF1 / Fold change vs veh, WIPF1 / RFU, LARP1B / Fold change vs veh, LARP1B / RFU, RASA1 / Fold change vs veh, RASA1 / RFU, RB1 / Fold change vs veh, RB1 / RFU, PPFIA1 / Fold change vs veh, PPFIA1 / RFU, MAT2A / Fold change vs veh, MAT2A / RFU, CCT5 / Fold change vs veh, CCT5 / RFU, WDR92 / Fold change vs veh, WDR92 / RFU, CUX1 / Fold change vs veh, CUX1 / RFU, TTC7A / Fold change vs veh, TTC7A / RFU, TMEM135 / Fold change vs veh, TMEM135 / RFU, DEPTOR / Fold change vs veh, DEPTOR / RFU, CPM / Fold change vs veh, CPM / RFU, DNAJB6 / Fold change vs veh, DNAJB6 / RFU, CACNA2D3 / Fold change vs veh, CACNA2D3 / RFU, DTX4 / Fold change vs veh, DTX4 / RFU, TFCP2 / Fold change vs veh, TFCP2 / RFU, GMCL1 /// GMCL1P1 / Fold change vs veh, GMCL1 /// GMCL1P1 / RFU, AEBP2 / Fold change vs veh, AEBP2 / RFU, SNHG1 /// SNORD22 /// SNORD25 /// SNORD26 /// SNORD27 /// SNORD28 /// SNORD29 /// SNORD31 / Fold change vs veh, SNHG1 /// SNORD22 /// SNORD25 /// SNORD26 /// SNORD27 /// SNORD28 /// SNORD29 /// SNORD31 / Fold change (Aza/veh), C12orf56 (ProbeSet 11735607_a_at) / Fold change (ACY-1035/veh), C12orf56 (ProbeSet 11735607_a_at) / Fold change (Aza/veh), FGFR1OP (ProbeSet 11751329_s_at) / Fold change (ACY-1035/veh), FGFR1OP (ProbeSet 11751329_s_at) / Fold change (Aza/veh), VPS36 (ProbeSet 11739960_a_at) / Fold change (ACY-1035/veh), VPS36 (ProbeSet 11739960_a_at) / RFU SYPL1 (11715823_x_at) / Fold change /veh SYPL1 (11715823_x_at) / RFU IGFBP7 (11715501_s_at) / Fold change /veh IGFBP7 (11715501_s_at) / RFU REEP3 (11722064_at) / Fold change /veh REEP3 (11722064_at) / RFU IGLL1 (11728026_x_at) / Fold change /veh IGLL1 (11728026_x_at): dose or concentration left out as unconfirmed. Conditions: ProbeSet 11755070_a_at; LIST D. Format: cell-based, human.

SMILES strings stand for the structures.

Regarding `Nc1ncn([C@@H]2O[C@H](CO)[C@@H](O)[C@H]2O)c(=O)n1` [azacitidine], the “RFU, CARD8” value was determined as 161.67 RFU.
